In publication PMC9369154, “Molecular Basis for Luteolin as a Natural TatD DNase Inhibitor in Trueperella pyogenes” (International Journal of Molecular Sciences, 2022):

Legend:
[1] = target: T1, TatD825 (Trueperella pyogenes, UniProt A0ABV3NC31); assay: SPR (Biacore T200, NTA chip, […] binding model); DNase gel assay with Mg2+ also shows inhibition
T1 construct: gene V3M73_06995; His-TatD 825 recombinant protein expressed in E. coli BL21 (DE3)

[2] = target: T2, TatD960 (Trueperella pyogenes, UniProt A0ABV3N8R6); assay: as above
T2 construct: gene V3M73_00540; His-TatD 960 recombinant protein expressed in E. coli BL21 (DE3)

SMILES: O=c1cc(-c2ccc(O)c(O)c2)oc2cc(O)cc(O)c12 [luteolin, 3′,4′,5,7-tetrahydroxyflavone]
- Kd [1]: 5.65 µM
- Kd [2]: 6.27 µM
